Reference: patent publication US20110294789A1, “COMPOUNDS FOR RHO KINASE INHIBITION AND FOR IMPROVING LEARNING AND MEMORY” (AMNESTIX, INC., priority 2008, published 2011)
“Also recorded” adds a separate entry of the source.

Key:
[1] = Huentelman et al. 2009; WO 2008/019395; cited from earlier work
[2] = test system: undifferentiated PC12 cells; conditions: Zhang et al. 2006; cited from earlier work
[3] = molecular target: T1, recombinant active rho kinase 2 (ROCK) (Homo sapiens, UniProt O75116); experiment: ROCK inhibition assay (ROCK assay kit, anti-phospho-MYPT1 detection); assay type: biochemical; conditions: test compounds 0.1 to 100 μM; compared to Fasudil in corresponding concentration; FIG. 12
T1 construct: purchased Upstate, Lake Placid, N.Y., USA (enzyme); Cell Biolabs Inc., San Diego (assay kit with substrate)
Protocol: The inhibitory effect of test compounds on rho kinase 2 (ROCK) was analyzed using recombinant active rho kinase 2 (Upstate, Lake Placid, N.Y., USA) and the a ROCK assay kit (Cell Biolabs Inc., San Diego, Calif., USA) following the manufacture's instruction. Recombinant rho kinase 2 was dissolved in kinase reaction buffer including the kinase substrate in the presence of the test compound. Test compounds were added in a final concentration of 0.1 to 100 μM. Assays without test compound served as control. […] Assays were incubated at 30° C. for 30-60 min and subsequently stopped by adding 50% of the reaction-volume of 0.5 M EDTA, pH 8.0. After washing steps phosphorylated kinase substrate was quantified using a specific anti-phospho-MYPT1 (Thr696) antibody and a HRP-conjugated secondary antibody.

ROCK2 = molecular target: T2, ROCK2 (Homo sapiens, UniProt O75116); experiment: KinomeScan competition binding assay; conditions: 10 μM; compared to Fasudil
T2 construct: purchased Ambit, San Diego, Calif., USA (KinomeScan)
Description: (§1) Based on a competition binding assay that quantitatively measures the ability of a test compound to compete with an immobilized, active-site directed ligand it is possible to scan the competitive effect of the test compound for a broad variety of kinases in parallel (KinomeScan, Ambit, San Diego, Calif., USA; Fabian et al., Nat. Biotechnol. 2005, 23, 329). Based on this analysis it is possible to assess the inhibitory specificity of a test compound. […] As result of the assay one obtains the percentage of competition of the active-site directed ligand for each of the over 400 kinases of the test due to the incubation with the test compounds. Competitions of more than 50% were regarded as significant indicating for inhibition of the particular kinase.

[4] = test system: Hippocampal primary neurons; experiment: Neurite outgrowth analysis; assay type: cell-based, rats; conditions: 1.5 μM or 15 μM, 2 days in culture; versus negative control and Fasudil; FIG. 15
Protocol: The effect of test compounds on neurite outgrowth can be assessed in vitro. Hippocampal primary neurons prepared from embryonic (E18) rats were cultured in Neurobasal medium (Invitrogen) enriched with B27, bFGF, Penicillin/Streptomycin, L-Glutamin. For the neurite outgrowth assay the medium is mixed with conditioned medium in a 1:1 ratio. The neurites were immunocytochemically stained using an antibody against the axonal marker neurofilament-light. Photographs were acquired at 40-fold magnification (Olympus IX81) and assembled to allow analysis of whole individual neurons. The test compounds 1-(8-methyl-5 isoquinoline-sulfonyl)homopiperazine and 1-(1-chloro-8-methoxy-5 isoquinoline-sulfonyl)homopiperazine were added to the medium in the final concentration of 1.5 μM or 15 μM 1 h after plating in comparison to adding water which served as negative control. […] After 2 days in culture the cells were fixed. Photographs and neurite tracing were performed in a blinded manner.

hippocampal slices = experiment: In vitro LTP analysis (theta burst stimulation, fEPSP slope); assay type: cell-based, Wistar rats
Description: Long-term potentiation (LTP) is an in vitro model for the assessment of memory function. Therefore, it allows analysis of test compounds, e.g. the compounds of the invention, e.g. 1-(8-methyl-5 isoquinoline-sulfonyl)homopiperazine and 1-(1-chloro-8-methoxy-5 isoquinoline-sulfonyl)homopiperazine, for memory enhancing potential. Experiments were done on hippocampal slices from 3-4 week-old Wistar rats. The rats were sacrificed by decapitation without prior anesthesia. Brains were quickly removed and soaked in ice cold artificial cerebrospinal fluid (ACSF) containing: NaCl (124 mM), KCl (5 mM), Na2HPO4 (1.2 mM), NaHCO3 (26 mM), CaCl2 (2 mM), MgSO4 (2 mM), and glucose (10 mM), that was continuously bubbled with carbogen (95% O2, 5% CO2). Slices were then cut at 400 μm thickness using a vibratome and incubated in ACSF at room temperature for at least 1 h before starting recordings. All compounds used were diluted in ACSF at the concentrations needed and were prepared fresh on the day of recording from 100 mM stock solutions. To assure proper solubility of the compounds, stock solutions were made with DMSO. For recording, slices were transferred to a 4-channel slice chamber (Synchroslice, Lohmann Research Equipment) that allows simultaneous recording of 4 brain slices. Each slice was placed in a separate submerged type slice chamber were it was continuously superfused with temperature controlled (34° C.) ACSF or ACSF at a rate of 2 ml/min. Under visual control by a camera system, a bipolar stimulation electrode (Rhoades) was placed in the Schaffer collaterals and a single biphasic electrical stimulus of a duration of 200 μs and an amplitude of 200 μA was applied at 0.05 Hz. A platinum/tungsten electrode was then lowered into the CA1 dendritic layer under visual control until stable amplitudes of the recorded fEPSP were achieved. After a recording period of at least 10 min, the input-output relationship between stimulus amplitude and fEPSP amplitude was achieved separately for each slice. […] To induce LTP, 10 theta bursts were applied. Each burst consisted of 4 biphasic stimuli of […] and 600 μA amplitude at a 10 ms interstimulus interval. The interburst interval was 200 ms. Each recording cycle started with a 15 min period in which electrical stimuli were applied at 0.05 Hz to assure stability of the fEPSP amplitude. Then, test the compound was washed in for a period of 30 min during which stimulation was continued at 0.05 Hz and fEPSPs were continuously recorded. LTP induction by theta burst stimulation was started 30 min after wash in. Recording was continued after LTP induction for at least 60 min, 30 min after LTP induction, compounds were washed out. All slices recorded simultaneously were treated with the same time schedule. From the recorded data, the amplitudes of the evoked fEPSP were automatically calculated by the recording software (Synchroslice data acquisition and analysis, LRE) as the negative peak of the postsynaptic signal with respect to baseline and plotted online. All recorded signals were digitally stored for later offline analysis, in particular for fEPSP negative slope calculation. From the stored single sweeps, the slope was calculated between 30% and 70% of the maximum fEPSP amplitude. To allow comparison of data obtained from different slices, fEPSP slopes were normalized to the control value (100%).
Effects induced by applied substances were tested for statistical significance using either the Student's t-test or the Mann-Whitney Rank Sum Test, significance was assumed if p<0.05. Measurements for each experimental condition were repeated six times. Results are given as means from n=5 slices and standard deviation (SD). […] This could be due to the activation of undesired kinases and/or pathways at this concentration. […]

over 400 kinases = experiment: KinomeScan competition binding assay, kinase specificity; conditions: 10 μM; competition of more than 50% regarded as inhibitory; FIG. 13A
Description: as §1

PIM kinases = experiment: KinomeScan competition binding assay; conditions: 10 μM; competition of more than 50% regarded as inhibitory
Description: as §1

IRAK1 = molecular target: T3, IRAK1 (Homo sapiens, UniProt P51617); experiment: KinomeScan competition binding assay; conditions: 10 μM; competition of more than 50% regarded as inhibitory
T3 construct: purchased Ambit, San Diego, Calif., USA (KinomeScan)
Description: as §1

T1 sequence (O75116 whole entry): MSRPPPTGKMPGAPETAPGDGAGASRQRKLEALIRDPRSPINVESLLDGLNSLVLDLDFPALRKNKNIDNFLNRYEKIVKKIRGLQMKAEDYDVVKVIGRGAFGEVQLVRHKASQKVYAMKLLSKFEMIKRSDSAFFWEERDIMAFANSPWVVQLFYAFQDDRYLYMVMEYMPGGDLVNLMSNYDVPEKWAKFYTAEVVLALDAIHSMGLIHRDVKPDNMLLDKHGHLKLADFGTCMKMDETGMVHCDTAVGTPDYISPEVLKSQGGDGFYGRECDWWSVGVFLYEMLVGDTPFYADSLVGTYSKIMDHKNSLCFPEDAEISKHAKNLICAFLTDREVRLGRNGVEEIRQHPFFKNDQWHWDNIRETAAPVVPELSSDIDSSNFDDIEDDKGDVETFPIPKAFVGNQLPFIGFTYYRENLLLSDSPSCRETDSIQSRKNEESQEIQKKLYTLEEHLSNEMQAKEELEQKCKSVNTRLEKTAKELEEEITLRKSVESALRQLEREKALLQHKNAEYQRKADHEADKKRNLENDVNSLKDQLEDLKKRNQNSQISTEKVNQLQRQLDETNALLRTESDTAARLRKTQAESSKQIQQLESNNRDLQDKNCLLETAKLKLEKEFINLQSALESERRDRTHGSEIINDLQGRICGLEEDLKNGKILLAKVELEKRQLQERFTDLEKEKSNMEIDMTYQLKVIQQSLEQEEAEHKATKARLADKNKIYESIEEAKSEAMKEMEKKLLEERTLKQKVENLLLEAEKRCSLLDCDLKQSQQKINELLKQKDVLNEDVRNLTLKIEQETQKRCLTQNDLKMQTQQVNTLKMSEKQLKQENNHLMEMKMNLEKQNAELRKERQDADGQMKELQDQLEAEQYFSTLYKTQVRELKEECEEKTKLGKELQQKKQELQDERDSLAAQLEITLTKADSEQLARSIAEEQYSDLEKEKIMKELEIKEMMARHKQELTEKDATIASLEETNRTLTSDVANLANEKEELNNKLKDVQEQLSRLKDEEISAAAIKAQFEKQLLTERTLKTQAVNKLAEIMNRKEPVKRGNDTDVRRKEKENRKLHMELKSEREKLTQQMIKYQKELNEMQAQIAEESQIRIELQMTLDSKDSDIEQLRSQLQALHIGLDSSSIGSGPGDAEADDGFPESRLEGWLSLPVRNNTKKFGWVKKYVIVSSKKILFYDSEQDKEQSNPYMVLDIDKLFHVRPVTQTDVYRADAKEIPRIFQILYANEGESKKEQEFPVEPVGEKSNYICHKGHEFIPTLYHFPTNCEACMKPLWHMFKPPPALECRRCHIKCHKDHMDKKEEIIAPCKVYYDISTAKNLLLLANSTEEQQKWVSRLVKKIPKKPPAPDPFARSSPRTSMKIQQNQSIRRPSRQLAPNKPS
T3 sequence (P51617 whole entry): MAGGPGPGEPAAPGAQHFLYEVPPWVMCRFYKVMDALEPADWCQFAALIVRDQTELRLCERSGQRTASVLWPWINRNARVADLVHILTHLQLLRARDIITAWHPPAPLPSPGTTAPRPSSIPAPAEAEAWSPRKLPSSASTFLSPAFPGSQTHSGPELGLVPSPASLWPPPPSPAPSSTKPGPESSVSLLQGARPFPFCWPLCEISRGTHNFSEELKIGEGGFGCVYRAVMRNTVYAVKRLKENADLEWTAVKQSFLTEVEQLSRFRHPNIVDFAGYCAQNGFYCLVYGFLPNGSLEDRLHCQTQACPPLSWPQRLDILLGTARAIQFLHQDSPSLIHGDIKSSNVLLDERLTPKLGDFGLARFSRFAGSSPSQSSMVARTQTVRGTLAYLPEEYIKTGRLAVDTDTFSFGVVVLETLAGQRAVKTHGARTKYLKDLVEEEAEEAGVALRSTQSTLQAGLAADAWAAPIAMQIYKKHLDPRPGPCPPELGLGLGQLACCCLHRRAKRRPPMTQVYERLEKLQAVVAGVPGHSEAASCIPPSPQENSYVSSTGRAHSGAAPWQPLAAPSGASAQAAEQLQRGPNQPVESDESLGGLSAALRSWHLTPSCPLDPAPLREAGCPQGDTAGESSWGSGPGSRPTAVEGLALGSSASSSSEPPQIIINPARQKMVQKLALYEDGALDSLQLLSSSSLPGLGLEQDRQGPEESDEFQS
T2 sequence (O75116 whole entry): as the sequence (O75116 whole entry) above

SMILES | learning and memory [1] | neurite outgrowth [2] | ROCK inhibition (rho kinase 2 activity) [3] | affinity to ROCK2 (ROCK2) | neurite outgrowth promoting activity [4] | effect on LTP (hippocampal slices; 1 μM) | effect on LTP (hippocampal slices; 100 μM) | kinase specificity / kinase interaction spectrum (over 400 kinases) | inhibitory effect for PIM kinases (PIM kinases) | inhibitory effect for IRAK1 (IRAK1) | enhancement of LTP (overall conclusion) (hippocampal slices) | effect on LTP (hippocampal slices; 10 μM) | synaptic activity upon removal of the substance (hippocampal slices; 100 μM, after wash out)
O=S(=O)(c1cccc2cnccc12)N1CCCNCC1 [Fasudil] | can enhance learning and memory | increase neurite outgrowth | – | – | – | – | – | – | – | – | – | – | –
Cc1ccc(S(=O)(=O)N2CCCNCC2)c2ccncc12 [1-(8-methyl-5 isoquinoline-sulfonyl)homopiperazine] | – | – | enhanced ROCK inhibition compared to Fasudil | much stronger affinity to ROCK2 than Fasudil | superior neurite outgrowth promoting activity | blocks LTP | the ability of LTP induction is re-established | broader kinase interaction spectrum comparable to that of Fasudil | – | – | – | – | –
COc1ccc(S(=O)(=O)N2CCCNCC2)c2ccnc(Cl)c12 [1-(1-chloro-8-methoxy-5 isoquinoline-sulfonyl)homopiperazine] | – | – | enhanced ROCK inhibition compared to Fasudil | – | did not significantly promote neurite outgrowth | clearly superior LTP stimulating effect compared to fasudil | LTP induction is blocked completely | much more specific ROCK inhibitor than Fasudil; also recorded: very specific ROCK inhibitor | mainly inhibitory effect only for PIM kinases and IRAK1 | mainly inhibitory effect only for PIM kinases and IRAK1 | significant enhancement of LTP | LTP induction is unaltered but the maintenance seems to be impaired | clear rebound of synaptic activity
